Measurements from publication PMC7470113, “Design, synthesis and biological evaluation of edaravone derivatives bearing the N-benzyl pyridinium moiety as multifunctional anti-Alzheimer’s agents” (Journal of Enzyme Inhibition and Medicinal Chemistry, 2020).
Like-named read-outs stand apart in the source and are kept apart here.

What was measured:
[1] = DPPH+ free radical scavenging antioxidant assay
Method: Antioxidant activity was studied with the DPPH^+ free radical scavenging assay[46]^,[47]. DPPH^+ and trolox were purchased from Sigma-Aldrich®. The following method was employed, as previously described, to determine the antioxidant activity of the test compounds. Each well of a 96 well plate, contained the following: 180 µL of 0.12 mM DPPH^+ dissolved in methanol and 20 µL of either test compound, control (trolox) or blank (DMSO). The test compounds and control were dissolved in DMSO and added to the well to yield various concentrations (1000 µM, 100 µM, 10 µM, 1 µM and 0.1 µM). […] The well plate was incubated at 25 °C for 30 min within a dark space. […] The quantity of DMSO per well accumulated to below 0.01%[45]. […] The percentage activity was calculated using the following equation: [(absorbance of blank − absorbance of test compounds)/absorbance of blank × 100)]. All data analysis was conducted on GraphPad Prism version 8.2.1 for Mac OS, GraphPad Software (San Diego, California, USA).
The 2,2-diphenyl-1-picrylhydrazyl (DPPH^+) assay was employed to determine the antioxidant ability of the synthesised compounds.

eqBuChE = biological target: T1, eqBuChE (Equus caballus, UniProt P81908); test: Cholinesterase inhibition assay (modified Ellman's method), eqBuChE; assay type: biochemical; settings: 25 °C, triplicate, read-out: BuChE IC50
T1 construct: purchased Sigma-Aldrich; host or cells: equine serum
Method: (§1) . […] The test compounds and control were dissolved in DMSO and added to the well to yield various concentrations (1000 µM, 100 µM, 10 µM, 1 µM, 0.1 µM and 0.01 µM). The quantity of DMSO per well accumulated to below 0.01%[45]. Each concentration of test compound and control was conducted in triplicate to ensure consistent results. The well-plates were then incubated at 25 °C for 10 min. Thereafter, 30 µL of either the ATCI or BTCI substrate was added to each well. The plate was then placed inside a Rayto 6500 spectrometer and the absorbance was read at 405 nm every 45 s for 5 min. The percentage activity was calculated using the following equation: [(absorbance of blank − absorbance of test compounds)/absorbance of blank × 100)]. All data analysis was conducted on GraphPad Prism version 8.2.1 for Mac OS, GraphPad Software (San Diego, CA, USA)
(§2) The inhibitory activities of the synthesised compounds were evaluated using eeAChE (electric eel) and eqBuChE (equine serum) according to a modified method of Ellman[44]. […].

eeAChE = biological target: T2, eeAChE (Electrophorus electricus, UniProt O42275); test: Cholinesterase inhibition assay (modified Ellman's method), eeAChE; assay type: biochemical; settings: for IC50: eeAChE, Ellman, 25 °C, triplicate, read-out: AChE IC50; for SI AChE (AChE selectivity index = IC50(eqBuChE)/IC50(eeAChE)): ratio BuChE/AChE
T2 construct: purchased Sigma-Aldrich
Method: as §1, §2

[2] = parameters: method as in PMID 29907205; settings: read-out: DPPH+ IC50 (antioxidant activity of edaravone); cited from earlier work
[3] = 0.12 mM DPPH+ in methanol, 30 min, 25 °C, 517 nm, read-out: DPPH+ IC50

T2 sequence (O42275 24-633): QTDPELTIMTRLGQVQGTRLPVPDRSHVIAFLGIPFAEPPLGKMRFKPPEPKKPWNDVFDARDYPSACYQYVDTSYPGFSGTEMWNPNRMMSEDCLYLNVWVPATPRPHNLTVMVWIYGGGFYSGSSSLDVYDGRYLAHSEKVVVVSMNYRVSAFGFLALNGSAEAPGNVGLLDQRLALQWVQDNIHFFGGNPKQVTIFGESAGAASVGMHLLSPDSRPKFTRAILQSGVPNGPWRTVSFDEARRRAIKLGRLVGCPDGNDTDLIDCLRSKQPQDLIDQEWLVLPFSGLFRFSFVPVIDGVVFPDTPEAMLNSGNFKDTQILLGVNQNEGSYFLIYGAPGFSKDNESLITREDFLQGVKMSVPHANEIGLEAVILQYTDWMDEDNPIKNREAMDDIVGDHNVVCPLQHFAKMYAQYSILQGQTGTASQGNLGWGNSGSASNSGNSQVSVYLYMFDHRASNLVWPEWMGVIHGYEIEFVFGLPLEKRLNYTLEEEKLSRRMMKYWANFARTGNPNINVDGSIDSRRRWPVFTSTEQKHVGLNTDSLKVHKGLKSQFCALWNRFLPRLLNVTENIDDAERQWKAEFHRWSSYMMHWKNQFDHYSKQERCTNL
T1 sequence (P81908 whole entry): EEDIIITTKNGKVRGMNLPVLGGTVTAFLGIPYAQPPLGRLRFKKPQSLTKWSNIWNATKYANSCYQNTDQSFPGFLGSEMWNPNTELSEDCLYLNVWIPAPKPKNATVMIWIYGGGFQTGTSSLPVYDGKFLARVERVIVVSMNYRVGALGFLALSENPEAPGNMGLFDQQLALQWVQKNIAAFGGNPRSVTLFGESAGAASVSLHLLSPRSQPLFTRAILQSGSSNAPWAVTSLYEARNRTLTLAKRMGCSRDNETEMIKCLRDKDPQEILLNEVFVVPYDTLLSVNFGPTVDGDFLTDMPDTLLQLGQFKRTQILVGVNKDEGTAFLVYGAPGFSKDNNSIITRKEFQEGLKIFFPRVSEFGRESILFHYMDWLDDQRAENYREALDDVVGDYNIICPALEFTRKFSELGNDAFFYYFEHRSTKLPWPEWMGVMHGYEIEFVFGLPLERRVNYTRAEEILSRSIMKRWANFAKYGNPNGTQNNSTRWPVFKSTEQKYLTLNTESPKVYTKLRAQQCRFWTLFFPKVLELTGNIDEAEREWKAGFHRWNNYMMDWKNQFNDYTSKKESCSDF

Row | Compound | IC50 [1, 3] | IC50 (eqBuChE) | IC50 (eeAChE) | SI AChE (AChE selectivity index = IC50(eqBuChE)/IC50(eeAChE)) (eeAChE) | IC50 ([1]; supplement, dose response curves, read-out: Antioxidant activity (DPPH+) dose response curve IC50) | IC50 [2]
1 | CC1=NN(c2ccc(C(=O)O)cc2)C(=O)C1 [Compound 1, Edaravone-COOH] | 45.7 µM | – | – | – | – | –
2 | CC1=NN(c2ccc(C(=O)NCc3ccncc3)cc2)C(=O)C1 [Compound 3, 4–(3-Methyl-5-oxo-4H-pyrazol-1-yl)-N-(pyridine-4-ylmethyl)benzamide] | 12.5 µM | > 1000 µM | > 100 µM | – | – | –
3 | CC1=NN(c2ccc(C(=O)NCc3cc[n+](Cc4ccccc4)cc3)cc2)C(=O)C1 [Compound 5a, 1-Benzyl-4-({[4–(3-methyl-5-oxo-4H-pyrazol-1-yl)phenyl]foramido}methyl)pyridin-1-ium bromide] | 22.9 µM | > 1000 µM | 30 µM | >33 | – | –
4 | CC1=NN(c2ccc(C(=O)NCc3cc[n+](Cc4ccccc4F)cc3)cc2)C(=O)C1 [Compound 5b, 1-[(2-Fluorophenyl)methyl]-4-({[4–(3-methyl-5-oxo-4H-pyrazol-1-yl)phenyl]foramido}methyl)pyridin-1-ium bromide] | 28.8 µM | > 1000 µM | 1.2 µM | – | – | –
5 | CC1=NN(c2ccc(C(=O)NCc3cc[n+](Cc4cccc(F)c4)cc3)cc2)C(=O)C1 [Compound 5c, 1-[(3-Fluorophenyl)methyl]-4-({[4–(3-methyl-5-oxo-4H-pyrazol-1-yl)phenyl]foramido}methyl)pyridin-1-ium bromide] | 25 µM | 926 µM | 4.6 µM | 201 | – | –
6 | CC1=NN(c2ccc(C(=O)NCc3cc[n+](Cc4ccc(F)cc4)cc3)cc2)C(=O)C1 [Compound 5d, 1-[(4-Fluorophenyl)methyl]-4-({[4–(3-methyl-5-oxo-4H-pyrazol-1-yl)phenyl]foramido}methyl)pyridin-1-ium bromide] | 11.5 µM | > 1000 µM | 3.6 µM | >278 | – | –
7 | CC1=NN(c2ccc(C(=O)NCc3cc[n+](Cc4ccccc4Cl)cc3)cc2)C(=O)C1 [Compound 5e, 1-[(2-Chlorophenyl)methyl]-4-({[4–(3-methyl-5-oxo-4H-pyrazol-1-yl)phenyl]foramido}methyl)pyridin-1-ium bromide] | 13.8 µM | 890 µM | 1.9 µM | 468 | – | –
8 | CC1=NN(c2ccc(C(=O)NCc3cc[n+](Cc4cccc(Cl)c4)cc3)cc2)C(=O)C1 [Compound 5f, 1-[(3-Chlorophenyl)methyl]-4-({[4–(3-methyl-5-oxo-4H-pyrazol-1-yl)phenyl]foramido}methyl)pyridin-1-ium bromide] | 13.1 µM | 891 µM | 3.3 µM | 270 | – | –
9 | CC1=NN(c2ccc(C(=O)NCc3cc[n+](Cc4ccccc4Br)cc3)cc2)C(=O)C1 [Compound 5g, 1-[(2-Bromophenyl)methyl]-4-({[4–(3-methyl-5-oxo-4H-pyrazol-1-yl)phenyl]foramido}methyl)pyridin-1-ium bromide] | 19 µM | 160 µM | 3.5 µM | 46 | 19 µM | –
10 | CC1=NN(c2ccc(C(=O)NCc3cc[n+](Cc4cccc(Br)c4)cc3)cc2)C(=O)C1 [Compound 5h, 1-[(3-Bromophenyl)methyl]-4-({[4–(3-methyl-5-oxo-4H-pyrazol-1-yl)phenyl]foramido}methyl)pyridin-1-ium bromide] | 13.3 µM | > 1000 µM | > 100 µM | – | – | –
11 | CC1=NN(c2ccc(C(=O)NCc3cc[n+](Cc4ccc(Br)cc4)cc3)cc2)C(=O)C1 [Compound 5i, 1-[(4-Bromophenyl)methyl]-4-({[4–(3-methyl-5-oxo-4H-pyrazol-1-yl)phenyl]foramido}methyl)pyridin-1-ium bromide] | 18.1 µM | > 1000 µM | 11.5 µM | >87 | – | –
12 | CC1=NN(c2ccc(C(=O)NCc3cc[n+](Cc4ccccc4C)cc3)cc2)C(=O)C1 [Compound 5j] | 9.5 µM | 630 µM | 19.9 µM | 32 | – | –
13 | CC1=NN(c2ccc(C(=O)NCc3cc[n+](Cc4cccc(C)c4)cc3)cc2)C(=O)C1 [Compound 5k] | 27.5 µM | > 1000 µM | 69.1 µM | >15 | – | –
14 | CC1=NN(c2ccc(C(=O)NCc3cc[n+](Cc4ccc(C)cc4)cc3)cc2)C(=O)C1 [Compound 5l] | 14.5 µM | > 1000 µM | 95.5 µM | >11 | – | –
15 | CC1=NN(c2ccccc2)C(=O)C1 [Edaravone] | – | – | – | – | – | 4.7 µM
16 | Cc1c(C)c2c(c(C)c1O)CCC(C)(C(=O)O)O2 (centres unmarked) [Trolox, reference compound] | 13.1 µM | – | – | – | – | –
